target: T1, human V1A receptor (Homo sapiens, UniProt P37288); assay: V1A filter binding assay ([3H]-AVP binding to CHO-hV1A membranes)
T1 construct: expressed in transfected cells; host or cells: CHO cells (CHO-hV1A line provided by Marc Thibonnier, Case Western Reserve University)
Experimental: 1.0 V1A Filter Binding Assay
Receptor binding assays were performed on cellular membranes prepared from CHO cells stably expressing the human V1A receptor, (CHO-hV1A). The CHO-hV1A cell line was kindly provided under a licensing agreement by Marc Thibonnier, Dept. of Medicine, Case Western Reserve University School of Medicine, Cleveland, Ohio. CHO-hV1A cells were routinely maintained at 37° C. in humidified atmosphere with 5% CO2 in DMEM/Hams F12 nutrient mix supplemented with 10% fetal bovine serum, 2 mM L-glutamine, 15 mM HEPES and 400 μg/ml G418. For bulk production of cell pellets, adherent CHO-hV1A cells were grown to confluency of 90-100% in 850 cm^2 roller bottles containing a medium of DMEM/Hams F12 Nutrient Mix supplemented with 10% fetal bovine serum, 2 mM L-glutamine and 15 mM HEPES. Confluent CHO-hV1A cells were washed with phosphate-buffered saline (PBS), harvested into ice cold PBS and centrifuged at 1,000 rpm. Cell pellets were stored at −80° C. until use. Cell pellets were thawed on ice and homogenised in membrane preparation buffer consisting of 50 mM Tris-HCl, pH 7.4, 5 mM MgCl2 and supplemented with a protease inhibitor cocktail, (Roche). The cell homogenate was centrifuged at 1000 rpm, 10 min, 4° C. and the supernatant was removed and stored on ice. The remaining pellet was homogenised and centrifuged as before. The supernatants were pooled and centrifuged at 25,000×g for 30 min at 4° C. […] Protein concentration was determined using Bradford reagent and BSA as a standard.
Protein linearity followed by saturation binding studies were performed on each new batch of membrane. […] Saturation binding studies were then performed using various concentrations of [^3H]-arginine vasopressin, [^3H]-AVP (0.05 nM-100 nM) and the Kd and Bmax determined.
Compounds were tested for their effects on [^3H]-AVP binding to CHO-hV1A membranes, (^3H-AVP; specific activity 65.5 Ci/mmol; NEN Life Sciences). […] The plates were sealed and counted on a TopCount Microplate Scintillation Counter (Packard Instruments). Non-specific binding (NSB) was determined using 1 μM unlabelled d(CH2)5Tyr(Me)AVP ([β-mercapto-β,β-cyclopentamethylenepropionyl, 0-Me-Tyr^2,Arg^8]-vasopressin ) (βMCPVP), (Sigma). The radioligand binding data was analysed using a four parameter logistic equation with the min forced to 0%. […] Specific binding was calculated by subtracting the mean NSB cpm from the mean Total cpm. For test compounds the amount of ligand bound to the receptor was expressed as % bound=(sample cpm−mean NSB cpm)/specific binding cpm×100. […] The inhibitory dissociation constant (Ki) was calculated using the Cheng-Prusoff equation: Ki=IC50/(1+[L]/Kd) where [L] is the concentration of ligand present in the well and Kd is the dissociation constant of the radioligand obtained from Scatchard plot analysis. […]

T1 sequence (P37288 whole entry): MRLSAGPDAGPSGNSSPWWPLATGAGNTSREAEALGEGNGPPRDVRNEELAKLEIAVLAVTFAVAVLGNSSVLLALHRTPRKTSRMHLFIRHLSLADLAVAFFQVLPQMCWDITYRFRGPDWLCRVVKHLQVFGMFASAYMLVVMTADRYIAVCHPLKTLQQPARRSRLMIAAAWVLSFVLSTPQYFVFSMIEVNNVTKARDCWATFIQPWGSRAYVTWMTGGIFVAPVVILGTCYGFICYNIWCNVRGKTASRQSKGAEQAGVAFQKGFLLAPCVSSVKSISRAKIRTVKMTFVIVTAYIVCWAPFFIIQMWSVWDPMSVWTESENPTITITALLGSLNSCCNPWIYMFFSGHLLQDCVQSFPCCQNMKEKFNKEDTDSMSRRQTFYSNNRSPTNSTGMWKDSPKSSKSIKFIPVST

Structure (SMILES)	Ki [nM]
COCc1nnc(N2Cc3ccccc3C2)n1-c1ccc(Cl)cc1 [Example 1, 2-[4-(4-Chlorophenyl)-5-(methoxymethyl)-4H-1,2,4-triazol-3-yl]isoindoline]	9.69
Cc1nnc(N2CCC3(CC2)OCc2ccccc23)n1-c1ccc(Cl)cc1 [Example 6, 1′-[4-(4-Chlorophenyl)-5-methyl-4H-1,2,4-triazol-3-yl]-3H-spiro[2-benzofuran-1,4′-piperidine]]	6.58
Clc1ccc(-n2c(Cn3nccn3)nnc2N2Cc3ccccc3C2)cc1 [Example 8, 2-[4-(4-Chlorophenyl)-5-(2H-1,2,3-triazol-2-ylmethyl)-4H-1,2,4-triazol-3-yl]isoindoline]	0.88
OCc1ccc2c(c1)CN(c1nnc(Cn3nccn3)n1-c1ccc(Cl)cc1)C2 [Example 10, {2-[4-(4-Chlorophenyl)-5-(2H-1,2,3-triazol-2-ylmethyl)-4H-1,2,4-triazol-3-yl]-2,3-dihydro-1H-isoindol-5-yl}methanol]	0.47
